# Measurements published in the SangsterLogP compilation.
# Key:
# [1] = method code SF-AS, from PMID: 6889867; settings: for logD: pH 7.4
# [2] = method code SF, from PMID: 6889867; settings: pH 7.4
structure (smiles),measurement,setting,value
COc1cc(Cc2cnc(N)nc2N)cc(OC)c1I,logD,[1],2.21
COc1cc(Cc2cnc(N)nc2N)ccc1O,logP,[1],0.64
Nc1ncc(Cc2cc(Cl)c(Cl)c(Cl)c2)c(N)n1,logD,[1],3.45
COc1cc(Cc2cnc(N)nc2N)ccc1OCc1ccccc1,logP,[1],2.66
COc1c(O)cc(Cc2cnc(N)nc2N)cc1O,logP,[1],-0.04
COCc1c(OC)cc(Cc2cnc(N)nc2N)cc1OC,logP,[1],1.19
Nc1ncc(Cc2cc(Cl)c(Cl)cc2Cl)c(N)n1,logD,[1],3.6
CCOc1cc(Cc2cnc(N)nc2N)cc(OCC)c1-n1cccc1,logD,[1],2.74
COc1cc(Cc2cnc(N)nc2N)cc(OC)c1-n1cccc1,logP,[1],1.78
COc1cc(Cc2cnc(N)nc2N)cc(OC)c1C(C)=O,logD,[1],0.91
COc1c(N(C)C)cc(Cc2cnc(N)nc2N)cc1N(C)C,logD,[1],1.86
COc1c(OCc2ccccc2)cc(Cc2cnc(N)nc2N)cc1OCc1ccccc1,logD,[1],3.7
CCSc1c(OC)cc(Cc2cnc(N)nc2N)cc1OC,logP,[1],1.79
CNc1cc(Cc2cnc(N)nc2N)cc(NC)c1,logP,[1],0.44
COc1cc(Cc2cnc(N)nc2N)cc(OC)c1N,logD,[1],0.6
COc1cc(OC)c(OC)cc1Cc1cnc(N)nc1N,logP,[1],1.17
CCOc1cc(Cc2cnc(N)nc2N)cc(OCC)c1C(C)(C)O,logD,[1],2.3
COC(=O)COc1c(OC)cc(Cc2cnc(N)nc2N)cc1OC,logP,[1],0.55
COc1cc(Cc2cnc(N)nc2N)ccc1SC,logD,[1],1.73
COc1cc(Cc2cnc(N)nc2N)cc(OC)c1C(=O)CS(C)(=O)=O,logP,[1],-0.31
COc1cc(Cc2cnc(N)nc2N)cc(O)c1O,logP,[1],-0.31
COc1ccc(Cc2cnc(N)nc2N)cc1OCc1ccccc1,logP,[1],2.44
COc1c(C)cc(Cc2cnc(N)nc2N)cc1C,logP,[1],2.19
CCOc1cc(Cc2cnc(N)nc2N)cc(OCC)c1N,logD,[1],1.5
COc1cc(Cc2cnc(N)nc2N)cc(C)c1OC,logP,[1],1.62
Nc1ccc(Cc2cnc(N)nc2N)cc1,logP,[1],0.22
COc1cc(Cc2cnc(N)nc2N)cc(I)c1OC,logD,[1],2.14
COc1cc(Cc2cnc(N)nc2N)cc(OC)c1CO,logP,[1],0.42
COc1cc(Cc2cnc(N)nc2N)cc(Cl)c1OC,logD,[1],1.73
CCCCOc1cc(Cc2cnc(N)nc2N)c(C)cc1OC,logP,[1],2.78
COc1c(Cl)cc(Cc2cnc(N)nc2N)cc1Cl,logD,[2],2.59
O=C1CN=C(c2ccccc2F)c2cc(I)ccc2N1CC(O)CO (centres undefined),logD,[1],1.81
C=CCc1c(OCC)cc(Cc2cnc(N)nc2N)cc1OCC,logD,[1],2.89
COc1cc(Cc2cnc(N)nc2N)cc(OC)c1OCc1ccccc1,logP,[1],2.46
COc1cc(Cc2cnc(N)nc2N)cc(OCc2ccccc2)c1OC,logP,[1],2.37
COc1cc(Cc2cnc(N)nc2N)cc(OC)c1C#N,logD,[1],1.2
COc1cc(Cc2cnc(N)nc2N)cc(OC)c1C(=O)N(C)C,logP,[1],-0.21
COc1cc(Cc2cnc(N)nc2N)cc(OC)c1C(C)C,logD,[1],3.18
CCOc1c(OC)cc(Cc2cnc(N)nc2N)cc1OC,logP,[1],1.34
CNc1cc(Cc2cnc(N)nc2N)cc(N(C)C)c1OC,logD,[1],1.56
COc1cncc(OC)c1Cc1cnc(N)nc1N,logD,[1],1.48
COc1cc(Cc2cnc(N)nc2N)cc(OC)c1SC,logP,[1],1.54
COc1cc(Cc2cnc(N)nc2N)cc(OC)c1C(=O)OC(C)C,logP,[1],1.72
COc1cc(Cc2cnc(N)nc2N)cc(OC)c1O,logP,[1],0.37
Nc1ncc(Cc2cc3c(cc2Br)OCO3)c(N)n1,logD,[1],2.3
COc1cccc(Cc2cnc(N)nc2N)c1,logP,[1],1.54
COc1cc(Cc2cnc(N)nc2N)cc(OC)c1Br,logD,[1],1.82
COc1cc(Cc2cnc(N)nc2N)c(Cl)c(OC)c1,logD,[1],1.94
COc1ccc(Cc2cnc(N)nc2N)cc1OC,logP,[1],0.97
COc1cc(Cc2cnc(N)nc2N)cc(OCc2ccccc2)c1OCc1ccccc1,logD,[1],3.9
CCOc1cc(Cc2cnc(N)nc2N)cc(OC)c1C(C)(C)O,logD,[1],1.92
COc1cc(Cc2cnc(N)nc2N)cc(OC)c1C(C)(C)O,logD,[1],1.3
CNc1cc(Cc2cnc(N)nc2N)cc(N(C)C(C)=O)c1C,logP,[1],0.53
COc1cc(Cc2cnc(N)nc2N)cc2c1OCO2,logD,[1],1.19
COc1cc(OC)c(Cl)c(Cc2cnc(N)nc2N)c1Cl,logD,[1],2.32
COC(=O)c1c(OC)cc(Cc2cnc(N)nc2N)cc1OC,logD,[1],0.76
Cc1cc2c(cc1Cc1cnc(N)nc1N)OCO2,logD,[1],1.7
COc1cc(Cc2cnc(N)nc2N)ccc1C(C)(C)O,logP,[1],1.38
COc1cc(Cc2cnc(N)nc2N)cc(OC)c1OCC#N,logP,[1],0.72
COc1cc(Cc2cnc(N)nc2N)ccc1C,logD,[1],1.95
CCOc1cc(Cc2cnc(N)nc2N)cc(OCC)c1C(C)=O,logD,[1],1.85
CCOc1cc(Cc2cnc(N)nc2N)cc(OCC)c1C(=O)CS(C)(=O)=O,logP,[1],0.79
Cc1c(N(C)C)cc(Cc2cnc(N)nc2N)cc1N(C)C,logP,[1],2.06
CN(C)c1cc(Cc2cnc(N)nc2N)cc(N(C)C)c1,logP,[1],1.6
COc1ccc(Cc2cnc(N)nc2N)cc1O,logD,[1],0.55
COCCOc1c(OC)cc(Cc2cnc(N)nc2N)cc1OC,logP,[1],0.56
COc1cc(C)c(Cc2cnc(N)nc2N)cc1OCc1ccccc1,logP,[1],2.69
Nc1ncc(Cc2ccc3c(c2)OCO3)c(N)n1,logD,[1],1.3
C=C(C)c1c(OC)cc(Cc2cnc(N)nc2N)cc1OCC,logP,[1],2.65
COc1ccc(Cc2cnc(N)nc2N)c(OC)n1,logD,[1],1.83
COc1cc(Cc2cnc(N)nc2N)cc(OC)c1Cl,logP,[1],1.87
COc1cc(C)c(Cc2cnc(N)nc2N)cc1OC,logP,[1],1.23
CCOC(=O)c1c(OCC)cc(Cc2cnc(N)nc2N)cc1OCC,logD,[1],2.09
CCOC(=O)c1c(OC)cc(Cc2cnc(N)nc2N)cc1OC,logP,[1],1.25
